Measurements reported in PubChem BioAssay AID192 (DTP/NCI, 2004).
Where “and” joins values, the source holds several entries; their conditions need not be identical. Equal values may be shown once. Toxic doses and inconclusive results are not listed.

Tested on: BDF1 mice, B16 melanoma ip, median survival T/C
Experiment: NCI In Vivo Anticancer Drug Screen. Data for tumor model B16 Melanoma (intraperitoneal) in B6D2F1 (BDF1) mice
Settings: endpoint: median survival time, higher = longer survival
Summary of the method: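 Tumor-bearing mice received test compound or vehicle. Survival or tumor size was then measured in both groups. The treated-group figure was divided by the control-group figure.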

[1] = dose: 100.0 mg/kg/injection, schedule: Q01DX009 (ip), vehicle: saline with Tween-80
[2] = dose: 200.0 mg/kg/injection, schedule: Q01DX009 (ip), vehicle: saline with Tween-80
[3] = dose: 25.0 mg/kg/injection, schedule: Q01DX009 (ip), vehicle: saline with Tween-80
[4] = dose: 50.0 mg/kg/injection, schedule: Q01DX009 (ip), vehicle: saline with Tween-80
[5] = dose: 6.25 mg/kg/injection, schedule: Q01DX009 (ip), vehicle: Klucel (hydroxypropylcellulose) (HPC)
[6] = dose: 12.5 mg/kg/injection, schedule: Q01DX009 (ip), vehicle: Klucel (hydroxypropylcellulose) (HPC)
[7] = dose: 25.0 mg/kg/injection, schedule: Q01DX009 (ip), vehicle: Klucel (hydroxypropylcellulose) (HPC)

Structure (SMILES): CC(=O)Nc1cc(N(CCOS(C)(=O)=O)CCOS(C)(=O)=O)ccc1N=O
- T/C (dose: 75.0 micrograms/kg/injection, schedule: Q04DX003 (ip), vehicle: saline): 111 % of control
- T/C (dose: 100.0 micrograms/kg/injection, schedule: Q01DX009 (ip), vehicle: saline): 121 % of control
- T/C (dose: 150.0 micrograms/kg/injection, schedule: Q04DX003 (ip), vehicle: saline): 110 % of control
- T/C (dose: 300.0 micrograms/kg/injection, schedule: Q04DX003 (ip), vehicle: saline): 109 % of control

Structure (SMILES): Oc1ccc(/C=N\N=C\c2ccc(O)cc2)cc1
- T/C [1]: 95 % of control
- T/C [2]: 90 % of control

Structure (SMILES): COC(=O)C(C)CN1CCCCC1 (configuration not stated)
- T/C (dose: 50.0 mg/kg/injection, schedule: Q04DX003 (ip), vehicle: saline): 111 % of control
- T/C (dose: 100.0 mg/kg/injection, schedule: Q04DX003 (ip), vehicle: saline): 111 % of control
- T/C (dose: 200.0 mg/kg/injection, schedule: Q04DX003 (ip), vehicle: saline): 105 % of control

Structure (SMILES): CCN(CC)c1nc(N(CC)CC)nc(N(CC)CC)n1
- T/C [3]: 89 % of control
- T/C [4]: 94 % of control

Structure (SMILES): CNC(=O)OCc1c(COC(=O)NC)c(C)n(-c2ccc(OC)cc2)c1C
- T/C (dose: 3.12 mg/kg/injection, schedule: Q01DX009 (ip), vehicle: Klucel (hydroxypropylcellulose) (HPC)): 113 % of control
- T/C [5]: 111 % of control

Structure (SMILES): CC(=O)Nc1ccc(OC(=O)Nc2cccc3ccccc23)cc1
- T/C (dose: 50.0 mg/kg/injection, schedule: Q04DX003 (ip), vehicle: Klucel (hydroxypropylcellulose) (HPC)): 96 % of control
- T/C (dose: 100.0 mg/kg/injection, schedule: Q04DX003 (ip), vehicle: Klucel (hydroxypropylcellulose) (HPC)): 106 % of control
- T/C (dose: 200.0 mg/kg/injection, schedule: Q04DX003 (ip), vehicle: Klucel (hydroxypropylcellulose) (HPC)): 93 % of control

Structure (SMILES): C=C1C(=O)OC2CC1C(OC(=O)/C=C/c1ccccc1)C/C(C)=C/CC/C(C)=C/CCC2(C)O (configuration not stated)
- T/C [6]: 105 % of control
- T/C [7]: 92 % of control
- T/C (dose: 50.0 mg/kg/injection, schedule: Q01DX009 (ip), vehicle: Klucel (hydroxypropylcellulose) (HPC)): 101 % of control

Structure (SMILES): O=C1C=CC2(CCC23C=CC(=O)O3)O1 (configuration not stated)
- T/C (dose: 7.5 mg/kg/injection, schedule: Q01DX009 (ip), vehicle: Klucel (hydroxypropylcellulose) (HPC)): 87 % of control
- T/C (dose: 15.0 mg/kg/injection, schedule: Q01DX009 (ip), vehicle: Klucel (hydroxypropylcellulose) (HPC)): 93 % of control
- T/C (dose: 30.0 mg/kg/injection, schedule: Q01DX009 (ip), vehicle: Klucel (hydroxypropylcellulose) (HPC)): 92 % of control

Structure (SMILES): Oc1c(CN2CCCC2)cc(Nc2cc(/C=C/c3ccc(Cl)cc3)nc(/C=C\c3ccc(Cl)cc3)n2)cc1CN1CCCC1
- T/C (dose: 3.0 mg/kg/injection, schedule: Q04DX003 (ip), vehicle: Klucel (hydroxypropylcellulose) (HPC)): 105 % of control
- T/C (dose: 6.0 mg/kg/injection, schedule: Q04DX003 (ip), vehicle: Klucel (hydroxypropylcellulose) (HPC)): 97 % of control
- T/C (dose: 12.0 mg/kg/injection, schedule: Q04DX003 (ip), vehicle: Klucel (hydroxypropylcellulose) (HPC)): 89 % of control

Structure (SMILES): CN(C)CCCN=Cc1ccc(O)cc1O.CN(C)CCCN=Cc1ccc(O)cc1O.[Ni+2]
- T/C (dose: 6.25 mg/kg/injection, schedule: Q01DX009 (ip), vehicle: saline with Tween-80): 95 % of control
- T/C (dose: 12.5 mg/kg/injection, schedule: Q01DX009 (ip), vehicle: saline with Tween-80): 95 % of control
- T/C (dose: 12.5 mg/kg/injection, schedule: Q04DX003 (ip), vehicle: saline with Tween-80): 117 % of control
- T/C [3]: 92 % of control
- T/C (dose: 25.0 mg/kg/injection, schedule: Q04DX003 (ip), vehicle: saline with Tween-80): 86 % of control

Structure (SMILES): CC(C)NC(=O)OCc1c(COC(=O)NC(C)C)c(-c2ccc(Cl)c(Cl)c2)n2c1CCC2
- T/C (dose: 1.56 mg/kg/injection, schedule: Q01DX009 (ip), vehicle: distilled water + Tween-80): 102 % of control
- T/C (dose: 2.34 mg/kg/injection, schedule: Q01DX009 (ip), vehicle: other): 123 % of control
- T/C (dose: 3.11 mg/kg/injection, schedule: Q01DX009 (ip), vehicle: distilled water + Tween-80): 118 % of control
- T/C (dose: 3.12 mg/kg/injection, schedule: Q01DX009 (ip), vehicle: distilled water + Tween-80): 120 % of control
- T/C (dose: 4.69 mg/kg/injection, schedule: Q01DX009 (ip), vehicle: saline with Tween-80): 183 % of control
- T/C (dose: 9.38 mg/kg/injection, schedule: Q01DX009 (ip), vehicle: other): 169 % of control
- T/C (dose: 9.38 mg/kg/injection, schedule: Q01DX009 (ip), vehicle: saline with Tween-80): 173 % of control
- T/C (dose: 12.5 mg/kg/injection, schedule: Q01DX009 (ip), vehicle: distilled water + Tween-80): 168 % of control
- T/C (dose: 14.4 mg/kg/injection, schedule: Q01DX009 (ip), vehicle: distilled water + Tween-80): 179 % of control
- T/C (dose: 18.75 mg/kg/injection, schedule: Q01DX009 (ip), vehicle: other): 197 % of control
- T/C (dose: 18.75 mg/kg/injection, schedule: Q01DX009 (ip), vehicle: saline with Tween-80): 239 % of control
- T/C (dose: 25.0 mg/kg/injection, schedule: Q01DX009 (ip), vehicle: distilled water + Tween-80): 200 % of control
- T/C (dose: 37.5 mg/kg/injection, schedule: Q01DX009 (ip), vehicle: saline with Tween-80): 245 % of control
- T/C (dose: 40.0 mg/kg/injection, schedule: Q01DX009 (ip), vehicle: distilled water + Tween-80): 103 % of control
- T/C (dose: 50.0 mg/kg/injection, schedule: Q01DX009 (ip), vehicle: distilled water + Tween-80): 100 % of control
- T/C (dose: 75.0 mg/kg/injection, schedule: Q01DX009 (ip), vehicle: saline with Tween-80): 215 % of control

Structure (SMILES): C[n+]1ccc(Nc2ccc(NC(=O)c3ccc(Nc4cc[n+](C)c5ccc(N)cc45)cc3N)cc2)cc1
- T/C (dose: 1.0 mg/kg/injection, schedule: Q01DX009 (ip), vehicle: saline with Tween-80): 98 % of control
- T/C (dose: 1.0 mg/kg/injection, schedule: Q02DX009 (ip), vehicle: Klucel (hydroxypropylcellulose) (HPC)): 103 % of control and 105 % of control
- T/C (dose: 2.0 mg/kg/injection, schedule: Q01DX009 (ip), vehicle: saline with Tween-80): 105 % of control
- T/C (dose: 2.0 mg/kg/injection, schedule: Q02DX009 (ip), vehicle: Klucel (hydroxypropylcellulose) (HPC)): 109 % of control and 113 % of control
- T/C (dose: 4.0 mg/kg/injection, schedule: Q01DX009 (ip), vehicle: saline with Tween-80): 109 % of control
- T/C (dose: 4.0 mg/kg/injection, schedule: Q02DX009 (ip), vehicle: Klucel (hydroxypropylcellulose) (HPC)): 101 % of control and 106 % of control
- T/C [5]: 109 % of control
- T/C (dose: 6.25 mg/kg/injection, schedule: Q01DX009 (ip), vehicle: saline): 104 % of control
- T/C (dose: 8.0 mg/kg/injection, schedule: Q01DX009 (ip), vehicle: saline with Tween-80): 106 % of control
- T/C (dose: 8.0 mg/kg/injection, schedule: Q02DX009 (ip), vehicle: Klucel (hydroxypropylcellulose) (HPC)): 108 % of control and 110 % of control
- T/C [6]: 105 % of control
- T/C (dose: 12.5 mg/kg/injection, schedule: Q01DX009 (ip), vehicle: saline): 102 % of control
- T/C (dose: 16.0 mg/kg/injection, schedule: Q01DX009 (ip), vehicle: saline with Tween-80): 106 % of control
- T/C (dose: 16.0 mg/kg/injection, schedule: Q02DX009 (ip), vehicle: Klucel (hydroxypropylcellulose) (HPC)): 109 % of control and 113 % of control
- T/C [7]: 89 % of control
- T/C (dose: 32.0 mg/kg/injection, schedule: Q02DX009 (ip), vehicle: Klucel (hydroxypropylcellulose) (HPC)): 92 % of control and 97 % of control

Structure (SMILES): O.O.[NH-]C1CCCCC1[NH-].[Pt+2] (configuration not stated)
- T/C (dose: 0.62 mg/kg/injection, schedule: Q01DX009 (ip), vehicle: dextrose): 91 % of control and 111 % of control
- T/C (dose: 1.25 mg/kg/injection, schedule: Q01DX009 (ip), vehicle: dextrose): 118 % of control
- T/C (dose: 1.25 mg/kg/injection, schedule: Q01DX009 (ip), vehicle: other): 120 % of control
- T/C (dose: 2.5 mg/kg/injection, schedule: Q01DX009 (ip), vehicle: dextrose): 124 % of control
- T/C (dose: 2.5 mg/kg/injection, schedule: Q01DX009 (ip), vehicle: other): 120 % of control
- T/C (dose: 10.0 mg/kg/injection, schedule: Q01DX009 (ip), vehicle: other): 155 % of control

Structure (SMILES): Cc1c2c(cc3c1[nH]c1ccccc13)C=NCC2
- T/C [4]: 107 % of control
- T/C [1]: 98 % of control
- T/C [2]: 109 % of control

Structure (SMILES): CC(C)C1CC2CCC3C(C)(C(=O)O)CCCC3(C)C2CC1CO (configuration not stated)
- T/C [4]: 99 % of control
- T/C (dose: 50.0 mg/kg/injection, schedule: Q04DX003 (ip), vehicle: saline with Tween-80): 100 % of control
- T/C [1]: 96 % of control
- T/C (dose: 100.0 mg/kg/injection, schedule: Q04DX003 (ip), vehicle: saline with Tween-80): 97 % of control
- T/C [2]: 94 % of control
- T/C (dose: 200.0 mg/kg/injection, schedule: Q04DX003 (ip), vehicle: saline with Tween-80): 90 % of control
